Experimental data reported in US6469028B1, “Synthesis and use of retinoid compounds having negative hormone and/or anatgonist activities” (Allergan, Inc., priority 1995, dated 2002).

Legend:
Assay in all cases: Ligand binding assay
RARα = molecular target: T1, RARα (Homo sapiens, UniProt P10276); design: expressed in transfected cells; host or cells: CV1 cells; details: read-out: Kd (nanomolar) RARα
T1 sequence (P10276 1-462): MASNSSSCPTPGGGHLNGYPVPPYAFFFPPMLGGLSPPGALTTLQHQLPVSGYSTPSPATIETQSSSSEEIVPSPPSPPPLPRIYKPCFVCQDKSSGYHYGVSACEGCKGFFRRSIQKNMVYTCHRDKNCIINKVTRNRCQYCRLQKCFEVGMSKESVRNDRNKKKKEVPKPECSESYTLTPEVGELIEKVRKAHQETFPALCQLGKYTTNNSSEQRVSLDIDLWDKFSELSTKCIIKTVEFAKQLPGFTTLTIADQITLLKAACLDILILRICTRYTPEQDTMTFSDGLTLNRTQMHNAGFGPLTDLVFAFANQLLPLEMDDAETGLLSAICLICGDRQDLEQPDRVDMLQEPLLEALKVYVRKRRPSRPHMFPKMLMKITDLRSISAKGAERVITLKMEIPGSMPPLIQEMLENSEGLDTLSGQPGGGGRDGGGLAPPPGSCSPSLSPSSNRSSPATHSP
Excerpt: (§1) A holoreceptor transactivation assay and a ligand binding assay which measure the antagonist/agonist like activity of the compounds of the invention, or their ability to bind to the several retinoid receptor subtypes, respectively, are described in published PCT Application No. WO93/11755 (particularly on pages 30-33 and 37-41) published on Jun. 24, 1993, the specification of which is also incorporated herein by reference. A description of the holoreceptor transactivation assay is also provided below.
(§2) CV1 cells (5,000 cells/well) were transfected with an RAR reporter plasmid MTV-TREp-LUC (50 ng) along with one of the RAR expression vectors (10 ng) in an automated 96-well format by the calcium phosphate procedure of Heyman et al. Cell 68: 397-406. For RXR-α and RXR-γ transactivation assays, an RXR-responsive reporter plasmid CRBPII-tk-LUC (50 ng) along with the appropriate RXR expression vectors (10 ng) was used substantially as described by Heyman et al. above, and Allegretto et al. J. Biol. Chem. 268: 26625-26633. For RXR-β transactivation assays, an RXR-responsive reporter plasmid CPRE-tk-LUC ([…]) along with RXR-β expression vector ([…]) was used as described in above. These reporters contain DRI elements from human CRBPII and certain DRI elements from promotor, respectively (see Mangelsdorf et al. The Retinoids: Biology Chemistry and Medicine, pp. 319-349, Raven Press Ltd., New York and Heyman et al., cited above). A β-galactosidase (50 ng) expression vector was used as an internal control in the transfections to normalize for variations in transfection efficiency. The cells were transfected in triplicate for 6 hours, followed by incubation with retinoids for 36 hours, and the extracts were assayed for luciferase and […] activities. The detailed experimental procedure for holoreceptor transactivations has been described in Heyman et al. above, and Allegretto et al. cited above. The results obtained in this assay are expressed in EC50 numbers, as they are also in the chimeric receptor transactivation assay. The Heyman et al. Cell 68: 397-406, Allegretto et al. J. Biol. Chem. 268: 26625-26633, and Mangelsdorf et al. The Retinoids: Biology, Chemistry, and Medicine, pp. 319-349, Raven Press Ltd., New York, are expressly incorporated herein by reference. The results of ligand binding assay are expressed in Kd numbers. (See Cheng et al. Biochemical Pharmacology 22: 3099-3108, expressly incorporated herein by reference.) […]

RARγ = molecular target: T2, RARγ (Homo sapiens, UniProt P13631); design: expressed in transfected cells; host or cells: CV1 cells; details: read-out: Kd (nanomolar) RARγ
T2 sequence (P13631 1-454): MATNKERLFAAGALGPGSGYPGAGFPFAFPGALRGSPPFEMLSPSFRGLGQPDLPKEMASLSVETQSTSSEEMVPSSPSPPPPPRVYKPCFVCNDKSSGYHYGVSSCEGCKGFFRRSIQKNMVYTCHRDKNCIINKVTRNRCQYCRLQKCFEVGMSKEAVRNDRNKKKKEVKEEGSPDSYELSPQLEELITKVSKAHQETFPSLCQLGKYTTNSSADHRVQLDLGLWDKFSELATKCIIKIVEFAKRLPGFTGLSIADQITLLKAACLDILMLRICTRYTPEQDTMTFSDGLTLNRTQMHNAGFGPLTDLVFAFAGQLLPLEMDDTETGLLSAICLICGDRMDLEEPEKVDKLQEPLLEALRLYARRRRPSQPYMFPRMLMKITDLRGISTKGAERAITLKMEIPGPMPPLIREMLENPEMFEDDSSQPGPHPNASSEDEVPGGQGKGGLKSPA
Excerpt: as §1, §2

RARβ = molecular target: T3, RARβ (Homo sapiens, UniProt P10826); details: read-out: Kd (nanomolar) RARβ
T3 sequence (P10826 1-455): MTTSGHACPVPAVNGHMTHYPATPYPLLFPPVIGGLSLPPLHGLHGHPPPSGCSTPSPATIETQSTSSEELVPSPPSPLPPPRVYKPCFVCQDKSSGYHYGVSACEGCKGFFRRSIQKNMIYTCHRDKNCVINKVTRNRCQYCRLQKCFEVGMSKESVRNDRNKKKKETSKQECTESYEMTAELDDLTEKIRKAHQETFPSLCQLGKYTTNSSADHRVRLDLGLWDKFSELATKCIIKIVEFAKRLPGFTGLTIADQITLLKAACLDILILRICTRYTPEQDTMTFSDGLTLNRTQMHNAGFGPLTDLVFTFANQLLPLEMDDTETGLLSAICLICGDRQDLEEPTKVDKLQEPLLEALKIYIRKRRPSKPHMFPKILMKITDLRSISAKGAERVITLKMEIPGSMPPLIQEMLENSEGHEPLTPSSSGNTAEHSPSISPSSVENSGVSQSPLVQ
Excerpt: as §1, §2

Structure (SMILES) | Kd (RARα) [nM] | Kd (RARγ) [nM] | Kd (RARβ) [nM]
Cc1ccc(C2=CCC(C)(C)c3ccc(C#Cc4ccc(C(=O)O)cc4)cc32)cc1 [Compound 60, 4-[(5,6-dihydro-5,5-dimethyl-8-(4-methylphenyl)-2-naphthalenyl)ethynyl]benzoic acid] | 1.5 | 3.3 | 1.9
Cc1ccc(C2=CCC(C)(C)c3cc(C(=O)C=Cc4ccc(C(=O)O)cc4)ccc32)cc1 [Compound 101, 4-[3-oxo-3-(7,8-dihydro-5-(4-methylphenyl)-8,8-dimethyl-2-naphthalenyl)-1-propenyl]-benzoic acid] | 750 | 637 | 143
CC1(C)CC=C(c2ccccc2)c2ccc(C(=O)C=Cc3ccc(C(=O)O)cc3)cc21 [Compound 103, 4-[3-oxo-3-(7,8-dihydro-5-phenyl-8,8-dimethyl-2-naphthalenyl)-1-propenyl]-benzoic acid] | 301 | 261 | 273

Further lines, results first:

Kd (RARα) [nM] | Kd (RARγ) [nM] | Kd (RARβ) [nM] | Structure (SMILES)
250 | 5.8 | 3.7 | Cc1ccc(C2=CCC(C)(C)c3ccc(N=Nc4ccc(C(=O)O)cc4)cc32)cc1 [Compound 46b, 4-[(5,6-dihydro-5,5-dimethyl-8-(4-methylphenyl)-2-naphthalenyl)azo]-benzoic acid]
60 | 56 | 63 | CC(/C=C/C=C(\C)c1ccc2c(c1)C(c1ccc(C)cc1)=CCC2(C)C)=C\C(=O)O [Compound 52, (E,E,E)-3-methyl-7-(5,6-dihydro-5,5-dimethyl-8-(4-methylphenyl)-2-naphthalenyl)-2,4,6-octatrienoic acid]
96 | 16 | 15 | CC(C)(C)c1ccc(C2=CCC(C)(C)c3ccc(C#Cc4ccc(C(=O)O)cc4)cc32)cc1 [Compound 61, 4-[(5,6-Dihydro-5,5-dimethyl-8-(4-(1,1-dimethylethyl)phenyl)-2-naphthalenyl)ethynyl]benzoic acid]
